Laboratory results taken from ChEMBL document CHEMBL3045647, “Synthesis, anti-microbial evaluation, and molecular modeling of new pyrazolo[3,4-d]pyrimidine derivatives” (2012).

How the values were obtained:
Type in all cases: functional
[1] = tested on: Staphylococcus aureus; experiment: Antibacterial activity against Staphylococcus aureus isolated from minced cow meet at 100 ug/ml after 24 hr by agar well diffusion method; details: read-out: IZ
[2] = tested on: Listeria monocytogenes; experiment: Antibacterial activity against Listeria monocytogenes isolated from mastitic cow milk at 100 ug/ml after 24 hr by agar well diffusion method; details: read-out: IZ
[3] = tested on: Salmonella typhimurium; experiment: Antibacterial activity against Salmonella enterica subsp. enterica serovar Typhimurium isolated from mastitic cow milk at 100 ug/ml after 24 hr by agar well diffusion method; details: read-out: IZ
[4] = tested on: Escherichia coli; experiment: Antibacterial activity against Escherichia coli O157:H7 isolated from poultry at 100 ug/ml after 24 hr by agar well diffusion method; details: O157:H7, 24 h, read-out: IZ
[5] = tested on: Aspergillus flavus; experiment: Antifungal activity against Aspergillus flavus at 100 ug/ml after 48 to 72 hr by agar well diffusion method; details: read-out: IZ
[6] = tested on: Candida albicans; experiment: Antifungal activity against Candida albicans at 100 ug/ml after 48 to 72 hr by agar well diffusion method; details: read-out: IZ
[7] = tested on: Bacillus cereus; experiment: Antibacterial activity against Bacillus cereus at 100 ug/ml after 24 hr by agar well diffusion method; details: read-out: IZ
[8] = tested on: Pseudomonas aeruginosa; experiment: Antibacterial activity against Pseudomonas aeruginosa minced cow meet at 100 ug/ml after 24 hr by agar well diffusion method; details: read-out: IZ
[9] = tested on: Aspergillus flavus; experiment: Antifungal activity against Aspergillus flavus at 25 ug/ml after 48 to 72 hr by agar well diffusion method; details: read-out: IZ
[10] = tested on: Candida albicans; experiment: Antifungal activity against Candida albicans at 25 ug/ml after 48 to 72 hr by agar well diffusion method; details: read-out: IZ
[11] = tested on: Listeria monocytogenes; experiment: Antibacterial activity against Listeria monocytogenes isolated from mastitic cow milk at 10 ug/ml after 24 hr by agar well diffusion method; details: read-out: IZ
[12] = tested on: Salmonella typhimurium; experiment: Antibacterial activity against Salmonella enterica subsp. enterica serovar Typhimurium isolated from mastitic cow milk at 10 ug/ml after 24 hr by agar well diffusion method; details: read-out: IZ
[13] = tested on: Escherichia coli; experiment: Antibacterial activity against Escherichia coli O157:H7 isolated from poultry at 10 ug/ml after 24 hr by agar well diffusion method; details: O157:H7, 24 h, read-out: IZ
[14] = tested on: Bacillus cereus; experiment: Antibacterial activity against Bacillus cereus at 10 ug/ml after 24 hr by agar well diffusion method; details: read-out: IZ
[15] = tested on: Pseudomonas aeruginosa; experiment: Antibacterial activity against Pseudomonas aeruginosa minced cow meet at 10 ug/ml after 24 hr by agar well diffusion method; details: read-out: IZ
[16] = tested on: Staphylococcus aureus; experiment: Antibacterial activity against Staphylococcus aureus minced cow meet at 10 ug/ml after 24 hr by agar well diffusion method; details: read-out: IZ

SMILES	zone of inhibition at 100 µg/mL [1]	zone of inhibition at 100 µg/mL [2]	zone of inhibition at 100 µg/mL [3]	zone of inhibition at 100 µg/mL [4]	zone of inhibition at 100 µg/mL [5]	zone of inhibition at 100 µg/mL [6]	zone of inhibition at 100 µg/mL [7]	zone of inhibition at 100 µg/mL [8]	zone of inhibition at 25 µg/mL [9]	zone of inhibition at 25 µg/mL [10]	zone of inhibition at 10 µg/mL [11]	zone of inhibition at 10 µg/mL [12]	zone of inhibition at 10 µg/mL [13]	zone of inhibition at 10 µg/mL [14]	zone of inhibition at 10 µg/mL [15]	zone of inhibition at 10 µg/mL [16]
Cc1nn(-c2ccccc2)c2nc(NN)nc(-c3ccc(Cl)cc3)c12	16 mm	16 mm	13 mm	10 mm	0 mm	16 mm	26 mm	16 mm								
COc1ccc(C(=O)CSc2nc(-c3ccc(Cl)cc3)c3c(C)nn(-c4ccccc4)c3n2)cc1	16 mm	14 mm	13 mm	16 mm	12 mm	26 mm	18 mm	18 mm								
Cc1nn(-c2ccccc2)c2nc(S)nc(-c3cccs3)c12	14 mm	16 mm	14 mm	14 mm	10 mm	10 mm	18 mm	16 mm								
Cc1nn(-c2ccccc2)c2nc(S)nc(-c3ccc(Cl)cc3)c12	18 mm	24 mm	12 mm	0 mm	0 mm	29 mm	22 mm	24 mm								
Cc1nn(-c2ccccc2)c2c1C(c1ccc(Cl)cc1)n1c(s/c(=C\c3ccc(C#N)cc3)c1=O)=N2 (stereo not drawn)	28 mm	20 mm	15 mm	18 mm	8 mm	9 mm	22 mm	18 mm								
Cc1nn(-c2ccccc2)c2nc(SCC(=O)Cl)nc(-c3ccc(Cl)cc3)c12	14 mm	29 mm	11 mm	9 mm	9 mm	8 mm	10 mm	22 mm								
Cc1nn(-c2ccccc2)c2nc(-n3[nH]c(=O)c(C#N)c3-c3cccs3)nc(-c3ccc(Cl)cc3)c12	14 mm	32 mm	10 mm	0 mm	12 mm	20 mm	9 mm	14 mm								
OC(Cn1cncn1)(Cn1cncn1)c1ccc(F)cc1F [FLUCONAZOLE]									16 mm	17 mm						
Cc1nn(-c2ccccc2)c2nc(-n3nc(N)c(C#N)c3-c3ccc(Cl)cc3)nc(-c3ccc(Cl)cc3)c12	12 mm	18 mm	9 mm	0 mm	0 mm	9 mm	12 mm	9 mm								
NC[C@H]1O[C@H](O[C@H]2[C@H](O)[C@@H](O[C@H]3O[C@H](CO)[C@@H](O)[C@H](N)[C@H]3O)[C@H](N)C[C@@H]2N)[C@H](N)C[C@@H]1O [TOBRAMYCIN]											20 mm	18 mm	20 mm	19 mm	18 mm	19 mm
Cc1nn(-c2ccccc2)c2nc(-n3[nH]c(=O)c(C#N)c3-c3ccc(Cl)cc3)nc(-c3ccc(Cl)cc3)c12	0 mm	29 mm	9 mm	0 mm	12 mm	24 mm	24 mm	14 mm								
Cc1nn(-c2ccccc2)c2c1c(-c1ccc(Cl)cc1)nc1nncn12	14 mm	20 mm	13 mm	10 mm	0 mm	18 mm	22 mm	12 mm								
